# Results from article PMC12298648, “An Evaluation of the Cytotoxicity and Safety Profile of Usnic Acid for a Broad Panel of Human Cancers and Normal Cells with Respect to Its Enantiospecificity” (Molecules, 2025).
# Like-named read-outs stand apart in the source and are kept apart here.
# Tests used:
# [1] = tested on: FemX; set-up: method as in PMID 23203090; details: 72 h; cited from earlier work
# [2] = tested on: 518A2; set-up: method as in PMID 27936296; details: 518A2, 72 h, cited from earlier work
# [3] = tested on: CCD 841 CoN; assay: MTT viability assay, normal colon epithelial cells; type: cell-based, human; details: Homo sapiens, CCD-841CoN; normal colon epithelial cells, 24 h, reference drug; read-out: IC50
# Description: (§1) Cell lines of different origins were used in the study and grouped as follows: prostate panel (human prostate carcinomas: DU145, derived from metastatic site: brain; grade IV PC3, derived from metastatic site: bone; LNCaP, derived from the metastatic site: lymph node; prostate epithelial, PNT2), colon panel (colorectal adenocarcinomas: HT29, originating from a primary tumor; Duke’s type C DLD-1, with the potential to lymph node metastasis; highly metastatic HCT116; colon epithelial cells CCD 841 CoN), thyroid panel (follicular thyroid carcinoma FTC133, anaplastic thyroid carcinoma 8505C, papillary thyroid carcinoma TPC-1, normal thyroid follicular epithelial Nthy-ori 3–1), breast panel (ER-positive breast adenocarcinoma MCF7, ER-negative breast adenocarcinoma MDA-MB-231, breast epithelial MCF10A), brain panel (neuroblastoma SH-SY5Y, glioblastoma U-87 MG, murine astrocytes C8D1A). All cell lines were purchased from Merck (Darmstadt, Germany).
# (§2) Cells were grown under standard conditions (37 °C, 5% CO2) and culture media (DMEM/F12 for PNT2, PC3, FTC133, 8505 C, MDA-MB-231, TPC-1; DMEM Low Glucose for DU145; DMEM High Glucose for HCT116, DLD-1, SH-SY5Y, U87MG, C8D1A; MEM with NEAA for MCF7; MEM for CCD 841 CoN; McCoy’s for HT29; RPMI1640 with sodium pyruvate for LNCaP; DMEM/F12 with 20 ng/mL epidermal growth factor (EGF), 10 μg/mL insulin, 0.5 μg/mL hydrocortisone, 100 ng/mL cholera toxin) for MCF10A), supplemented with 10% fetal bovine serum (FBS) or 5% donor horse serum for MCF10A, and 1% antibiotics solution (10,000 U penicillin and 10 mg streptomycin/mL). The tested substances were prepared as 10 mg/mL stock solutions in DMSO and further diluted in the culture media to the working concentrations. Cells were treated with UA enantiomers at the concentration range of 0–50 µg/mL. The influence of DMSO on cell viability was also examined, with the final concentration […], and no toxic effect was noted.
# (§3) The cells were seeded onto 96-well plates at a density of 1.5 × 10^4 cells/well. After 24 h UA enantiomers were added. Cell viability was determined after 24, 48, and 72 h by the MTT assay, as described previously. Doxorubicin was used as a reference cytostatic drug. All analyses were performed in triplicate; cell viability was expressed as % of control, untreated cells (mean ± SD), and IC50 values (concentration at which cell viability is inhibited by 50%), if possible.
# [4] = tested on: PNT2; assay: MTT viability assay, normal prostate epithelial cells; type: cell-based, human; details: Homo sapiens, PNT2; normal prostate epithelial cells, reference drug, time not given; read-out: IC50
# Description: as §1, §2, §3
# [5] = tested on: C8D1A; assay: MTT viability assay, normal astrocytes C8D1A; type: cell-based, murine; details: Mus musculus, C8-D1A; murine astrocytes, 24 h, reference drug
# Description: as §1, §2, §3
# [6] = tested on: WM793 cells; set-up: method as in PMID 34577645; details: WM793, reference drug, time not given; cited from earlier work
# [7] = tested on: HepG2 cells; set-up: method as in PMID 40368021; details: HepG2, 24 h, reference drug; cited from earlier work
# [8] = tested on: human non-cancerous skin cells; set-up: method as in PMID 34500657; details: 24 h, reference drug; cited from earlier work
SMILES,IC50 [1] [µg/mL],IC50 ([2]; recalculated from µM by the authors),IC50 ([2]; read-out: IC50) [µM],IC50 [3] [µg/mL],IC50 [4] [µg/mL],IC50 [5] [µg/mL],IC50 [6] [µg/mL],IC50 (hepatotoxicity) [7] [µg/mL],IC50 [8] [µg/mL]
"CC(=O)c1c(O)c(C)c(O)c2c1OC1=CC(=O)C(C(C)=O)C(=O)C12C (stereo not drawn) [UA, Usnic acid]",12.72,≈ 2 µg/mL,5.4,,,,,,
"COc1cccc2c1C(=O)c1c(O)c3c(c(O)c1C2=O)C[C@@](O)(C(=O)CO)C[C@@H]3O[C@H]1C[C@H](N)[C@H](O)[C@H](C)O1 [doxorubicin, reference compound]",,,,2.25,1.4,2.25,> 100,1.03,4.7
